In the NIST ThermoML archive (doi:10.1016/j.jct.2013.05.012):

Assays:
[1] = wn = mass fraction of the nth substance listed; conditions: 101 kPa, Liquid; for mass density: Pycnometric method; for viscosity: Capillary tube (Ostwald / Ubbelohde) method; for speed of sound: variable-path interferometer
[2] = mn = molality of the nth substance listed, in mol/kg; conditions: 101 kPa, Liquid, variable-path interferometer
[3] = 101 kPa, Liquid, Linear variable-path acoustic interferometer

OC[C@H]1O[C@@](CO)(O[C@H]2O[C@H](CO)[C@@H](O)[C@H](O)[C@H]2O)[C@@H](O)[C@@H]1O [D-sucrose] + O
[1]
Conditions | mass density [kg/m3] | speed of sound [m/s] | viscosity [mPa·s]
293.15 K, w1 = 0.05 | 1018.91 | – | –
293.15 K, w1 = 0.1 | 1039.28 | – | –
293.15 K, w1 = 0.15 | 1060.31 | – | –
293.15 K, w1 = 0.2 | 1082.73 | – | –
298.15 K, w1 = 0.05 | 1017.19 | 1516.5 | 1.011
298.15 K, w1 = 0.1 | 1037.45 | 1531.8 | 1.183
298.15 K, w1 = 0.15 | 1058.49 | 1543.6 | 1.418
298.15 K, w1 = 0.2 | 1080.77 | 1555.3 | 1.756
303.15 K, w1 = 0.05 | 1015.45 | 1526.6 | 0.9129
303.15 K, w1 = 0.1 | 1035.61 | 1541.8 | 1.061
303.15 K, w1 = 0.15 | 1056.67 | 1553 | 1.252
303.15 K, w1 = 0.2 | 1078.8 | 1564.6 | 1.549
308.15 K, w1 = 0.05 | 1013.72 | 1537.8 | 0.8285
308.15 K, w1 = 0.1 | 1033.76 | 1551.6 | 0.9614
308.15 K, w1 = 0.15 | 1054.84 | 1562 | 1.129
308.15 K, w1 = 0.2 | 1076.84 | 1575.2 | 1.396
313.15 K, w1 = 0.05 | 1011.98 | 1547.7 | 0.7457
313.15 K, w1 = 0.1 | 1031.93 | 1561.8 | 0.8804
313.15 K, w1 = 0.15 | 1053.01 | 1570.8 | 1.025
313.15 K, w1 = 0.2 | 1074.88 | 1583.9 | 1.25
318.15 K, w1 = 0.05 | 1010.23 | 1557.2 | 0.6946
318.15 K, w1 = 0.1 | 1030.09 | 1570.9 | 0.8179
318.15 K, w1 = 0.15 | 1051.2 | 1579.2 | 0.9402
318.15 K, w1 = 0.2 | 1072.93 | 1592.8 | 1.15

C[C@@H](O)[C@H](N)C(=O)O [L-threonine] + O
speed of sound [m/s], [2]
Conditions | m1 = 0.0249 | m1 = 0.0498 | m1 = 0.0749 | m1 = 0.0999 | m1 = 0.125 | m1 = 0.1499 | m1 = 0.1749 | m1 = 0.1999
298.15 K | 1501.1 | 1505.5 | 1510.2 | 1515.2 | 1520.5 | 1526.1 | 1531.9 | 1538.1
303.15 K | 1512.5 | 1516.9 | 1521.6 | 1526.5 | 1531.7 | 1537.3 | 1543.2 | 1549.4
308.15 K | 1523.8 | 1528.1 | 1532.7 | 1537.5 | 1542.7 | 1548.2 | 1553.9 | 1560.1
313.15 K | 1530.7 | 1534.9 | 1539.4 | 1544.1 | 1549.2 | 1554.5 | 1560.2 | 1566.1
318.15 K | 1536.8 | 1540.9 | 1545.2 | 1549.8 | 1554.8 | 1560 | 1565.5 | 1571.3

O [water]
[3]
Conditions | speed of sound [m/s]
303.15 K | 1508.4
313.15 K | 1526.8
318.15 K | 1533
